In patent US4321271A, “Heterocyclic and aliphatic growth promotors” (Beecham Group Limited, priority 1979, dated 1982):
Where two headings read alike, the source gives them in different places.

Columns and labels:
rumen fluid = experiment: In vitro incubation of buffered rumen fluid: volatile fatty acids, methane inhibition and hydrogen; type: cell-based, sheep; details: 20 h; for % hydrogen present: headspace gas; for Molar % VFA Acetate / Molar % VFA Butyrate / Molar % VFA Propionate / TVFA: sheep rumen fluid
Protocol: The compounds were tested for their ability to reduce or inhibit methane production and to enhance propionate formation. The method used is as follows:
The screening system is in vitro incubation of buffered rumen fluid with, or without, the addition of the test compound.
Rumen fluid is removed by suction from two rumen-fistulated sheep, just before feeding. The fluid is strained and mixed. The incubation is for twenty hours in a shaking water-bath at 39° C. Each incubation flask contains: 30 ml McDougall's bicarbonate buffer-pH 6.7-6.9, 10 ml strained rumen fluid, 200 mg substrate (the substrate is a ground sample of the diet on which the sheep has been fed) and 1 ml 10% aqueous ethanol containing 0.2% Tween 80 and the compound under examination. Samples are taken at the end of the incubation period for analysis of headspace gases and volatile fatty acids, by g.l.c. […]

methanogenesis = experiment: In vivo "gas collection screen" in sheep (respirometer): methanogenesis and hydrogen evolution; details: sheep 50 kg, in diet, 75 mg/day, 5 week period
Protocol: In vivo Studies in a "gas collection screen":
A Group of 4, 50 kg Sheep were fed diets containing the compound of Example 6 over 5 week period. A different sheep from each group was put into a respirometer for 24 hours each day. Each sheep was thus monitored once in every […]. Gas flow was maintained by a peristatic pump and measured using a commercial gas meter and a sub-sample collected in a butyl-rubber inner tube. Gas analysis was carried out by gas chromatograph using a R/E 204 gas chromatograph with both electron capture and […] detectors.
During a run-in control period it was found the sheep produced 19.2±0.4 liters methane/day and not more than 1.5 liters Hydrogen/day.
The compounds were stable in the feed over the period of the study. By feeding measured amounts to the sheep (no refusals) it was possible to "dose" each sheep with 75 mg/day.

[1] = Ovis aries, read-out: VFA production % difference from control, Acetate
[2] = Ovis aries, read-out: VFA production % difference from control, Butyrate
[3] = Ovis aries, read-out: VFA production % difference from control, Propionate
[4] = Ovis aries, read-out: VFA production % difference from control, TVFA
[5] = Ovis aries, 10 ppm/flask, 39° C

Compound | % hydrogen present (rumen fluid; 10 ppm/flask, 39° C) [%] | Molar % VFA Acetate (rumen fluid; 10 ppm/flask, 39° C) [%] | Molar % VFA Butyrate (rumen fluid; 10 ppm/flask, 39° C) [%] | Molar % VFA Propionate (rumen fluid; 10 ppm/flask, 39° C) [%] | TVFA (rumen fluid; 10 ppm/flask, 39° C) [μM/ml] | percent change in VFA production versus control at 10 ppm (rumen fluid; [1]) [%] | percent change in VFA production versus control at 10 ppm (rumen fluid; [2]) [%] | percent change in VFA production versus control at 10 ppm (rumen fluid; [3]) [%] | percent change in VFA production versus control at 10 ppm (rumen fluid; [4]) [%] | inhibition at 10 ppm (rumen fluid; [5]) [%] | % inhibition of methanogenesis (methanogenesis) [%] | Hydrogen evolution (methanogenesis) [liters/24h] | percent change in VFA production versus control at 5 µg/mL (rumen fluid; [1]) [%] | percent change in VFA production versus control at 5 µg/mL (rumen fluid; [2]) [%] | percent change in VFA production versus control at 5 µg/mL (rumen fluid; [3]) [%] | percent change in VFA production versus control at 5 µg/mL (rumen fluid; [4]) [%] | inhibition at 5 µg/mL (rumen fluid; Ovis aries, tested at 5 ppm level, 39° C) [%] | % hydrogen present (rumen fluid; tested at 5 ppm level, 39° C) [%]
CN1CCN(CC(O)C(Cl)(Cl)Cl)CC1 (stereo not drawn) [Compound A, reference compound] | 0.062 | 65.3 | 9.13 | 21.9 | 56.7 | -35 | 9 | 19.9 | -22.6 | 50.6 | – | – | – | – | – | – | – | –
CNCC(O)C(Cl)(Cl)Cl (stereo not drawn) [Example 1, 1,1,1-Trichloro-3-methylaminopropan-2-ol] | 1.43 | 55.3 | 12.1 | 30.4 | 40.6 | -44.7 | -29.7 | 22.3 | -28.2 | 100 | – | – | – | – | – | – | – | –
CN(C)CC(O)C(Cl)(Cl)Cl (stereo not drawn) [Example 2, 1,1,1-Trichloro-3-dimethylaminopropan-2-ol] | 1.61 | 55.6 | 12.2 | 29.7 | 43.9 | -35.5 | -18.1 | 31.5 | -18.4 | 100 | – | – | – | – | – | – | – | –
CCN(CC)CC(O)C(Cl)(Cl)Cl (stereo not drawn) [Example 3, 1,1,1-Trichloro-3-diethylaminopropan-2-ol] | 1.27 | 54.2 | 12.4 | 30.0 | 43.3 | -42.3 | -20 | 26.8 | -23 | 100 | – | – | – | – | – | – | – | –
CC(C)CNCC(O)C(Cl)(Cl)Cl (stereo not drawn) [Example 4, 1,1,1-Trichloro-3-isobutylaminopropan-2-ol] | 1.07 | 55.3 | 12.3 | 30.0 | 40.1 | -45.7 | -29 | 18.8 | -29.4 | 100 | – | – | – | – | – | – | – | –
OC(CNC1CCCCC1)C(Cl)(Cl)Cl (stereo not drawn) [Example 5, 1,1,1-Trichloro-3-cyclohexylaminopropan-2-ol] | 1.01 | 56.7 | 10.21 | 31.1 | 44.2 | -31.1 | 14.6 | 32.5 | -11.8 | 100 | – | – | – | – | – | – | – | –
OC(CN1CCCCC1)C(Cl)(Cl)Cl (stereo not drawn) [Example 6, 1,1,1-Trichloro-3-(N-piperidino)propan-2-ol] | 1.34 | 57.7 | 9.64 | 30.7 | 45.3 | -25.8 | 7.9 | 34.1 | -8.3 | 100 | 9.1 | 2.1 | -19.1 | 27.7 | 23 | -7.1 | 32.2 | 0.09
OC(CN1CCCC1)C(Cl)(Cl)Cl (stereo not drawn) [Example 7, 1,1,1-Trichloro-3-(N-pyrrolidino)propan-2-ol] | 1.18 | 57.7 | 9.67 | 30.5 | 44.6 | -27.6 | – | 30.5 | -10.4 | 100 | – | – | – | – | – | – | – | –
